Residues, ends and D or L forms follow the SMILES beside them.
Columns and labels:
Assay type in all cases: functional, cell-based
[1] = target: T1, Solute carrier family 15 member 2 (Rattus norvegicus, UniProt Q63424); assay: TP_TRANSPORTER: inhibition of Gly-Sar uptake (Gly-Sar: 10 uM) in PEPT2-expressing SK-N-SH cells
T1 sequence (Q63424 whole entry): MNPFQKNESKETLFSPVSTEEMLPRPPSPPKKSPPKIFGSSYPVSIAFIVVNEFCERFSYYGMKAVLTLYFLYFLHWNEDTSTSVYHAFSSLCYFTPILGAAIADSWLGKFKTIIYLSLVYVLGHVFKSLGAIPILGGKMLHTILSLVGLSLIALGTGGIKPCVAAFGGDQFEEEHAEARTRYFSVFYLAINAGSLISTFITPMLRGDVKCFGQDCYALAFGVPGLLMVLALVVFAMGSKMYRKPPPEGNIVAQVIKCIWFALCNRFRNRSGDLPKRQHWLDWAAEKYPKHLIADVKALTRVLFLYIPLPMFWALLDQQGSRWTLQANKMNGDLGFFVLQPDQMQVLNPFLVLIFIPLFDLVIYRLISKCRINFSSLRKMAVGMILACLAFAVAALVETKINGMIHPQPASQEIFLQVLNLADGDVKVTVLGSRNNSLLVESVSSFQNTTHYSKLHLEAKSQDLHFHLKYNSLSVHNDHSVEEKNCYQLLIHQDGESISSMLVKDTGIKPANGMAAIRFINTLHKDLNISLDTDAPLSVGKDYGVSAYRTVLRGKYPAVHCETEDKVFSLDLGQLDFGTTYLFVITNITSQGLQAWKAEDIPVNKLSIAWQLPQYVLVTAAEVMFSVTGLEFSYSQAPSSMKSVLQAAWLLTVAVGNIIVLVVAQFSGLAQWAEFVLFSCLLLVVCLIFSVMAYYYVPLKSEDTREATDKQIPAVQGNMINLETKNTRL

[2] = target: T2, Solute carrier family 15 member 2 (Rattus norvegicus) (UniProt Q63424); assay: TP_TRANSPORTER: inhibition of Gly-Sar uptake (Gly-Sar: 30 uM, Ala-Lys: 500 uM) in PEPT2-expressing SK-N-SH cells
T2 sequence (whole entry): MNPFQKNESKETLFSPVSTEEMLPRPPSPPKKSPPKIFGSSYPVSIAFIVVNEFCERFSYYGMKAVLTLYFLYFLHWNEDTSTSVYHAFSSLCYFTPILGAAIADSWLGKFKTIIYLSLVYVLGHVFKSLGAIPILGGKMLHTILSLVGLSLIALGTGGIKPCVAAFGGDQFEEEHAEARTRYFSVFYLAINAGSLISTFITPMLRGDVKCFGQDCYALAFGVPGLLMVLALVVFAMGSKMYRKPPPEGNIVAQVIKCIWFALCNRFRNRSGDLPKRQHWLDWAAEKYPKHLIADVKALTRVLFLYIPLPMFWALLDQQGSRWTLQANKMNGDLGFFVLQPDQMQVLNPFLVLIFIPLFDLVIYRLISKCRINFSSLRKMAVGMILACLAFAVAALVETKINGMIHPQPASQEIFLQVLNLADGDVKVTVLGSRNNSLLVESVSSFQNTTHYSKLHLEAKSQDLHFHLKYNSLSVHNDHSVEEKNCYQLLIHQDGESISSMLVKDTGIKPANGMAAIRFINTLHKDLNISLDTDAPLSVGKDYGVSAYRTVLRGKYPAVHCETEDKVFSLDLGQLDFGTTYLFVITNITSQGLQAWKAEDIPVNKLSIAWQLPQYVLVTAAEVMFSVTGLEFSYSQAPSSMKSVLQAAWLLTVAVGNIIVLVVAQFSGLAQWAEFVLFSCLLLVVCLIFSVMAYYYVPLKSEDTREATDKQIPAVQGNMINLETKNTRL

[3] = target: T2, Solute carrier family 15 member 2 (Rattus norvegicus); assay: (§1) TP_TRANSPORTER: uptake in PEPT2-expressing HeLa cells
[4] = target: T2, Solute carrier family 15 member 2 (Rattus norvegicus); assay: TP_TRANSPORTER: inhibition of Gly-Sar uptake (Gly-Sar: 30 uM, Ala-Glu: 500 uM) in PEPT2-expressing SK-N-SH cells
[5] = target: T2, Solute carrier family 15 member 2 (Rattus norvegicus); assay: TP_TRANSPORTER: inhibition of Gly-Sar uptake (Gly-Sar: 30 uM, Ala-Val: 500 uM) in PEPT2-expressing SK-N-SH cells
[6] = substrate: CN(CC(=O)O)C(=O)CN; assay: as §1

For `CC(=O)N[C@@H](CC(=O)O)C(=O)N[C@@H](CCC(=O)O)C(=O)O` [ISOSPAGLUMIC ACID] (Ac-Asp-Glu-OH), the IC50 [1] was 3 mM.

For `C[C@H](N)C(=O)N[C@@H](CCCCN)C(=O)O` (H-Ala-Lys-OH), the Activity [2] was “inhibitor [+]”.

In the case of `NCC(=O)N[C@@H](Cc1ccccc1)C(=O)O` (H-Gly-Phe-OH), the Activity [3] is reported as “substrate [+]”.

`C[C@H](N)C(=O)N[C@@H](CCC(=O)O)C(=O)O` (H-Ala-Glu-OH) was tested, and the Activity [4] was “inhibitor [+]”.

`NCC(=O)NCC(=O)O` (H-Gly-Gly-OH) was tested, and the Activity [3] was “substrate [+]”.

With `NCC(=O)N1CCC[C@H]1C(=O)O` (H-Gly-Pro-OH) the Activity [3] was “substrate [+]”.

For `CC(C)[C@H](NC(=O)[C@H](C)N)C(=O)O` (H-Ala-Val-OH), the Activity [5] was “inhibitor [+]”.

B1: Solute carrier family 15 member 2 (Rattus norvegicus), Q63424 (protein)
chain: MNPFQKNESKETLFSPVSTEEMLPRPPSPPKKSPPKIFGSSYPVSIAFIVVNEFCERFSYYGMKAVLTLYFLYFLHWNEDTSTSVYHAFSSLCYFTPILGAAIADSWLGKFKTIIYLSLVYVLGHVFKSLGAIPILGGKMLHTILSLVGLSLIALGTGGIKPCVAAFGGDQFEEEHAEARTRYFSVFYLAINAGSLISTFITPMLRGDVKCFGQDCYALAFGVPGLLMVLALVVFAMGSKMYRKPPPEGNIVAQVIKCIWFALCNRFRNRSGDLPKRQHWLDWAAEKYPKHLIADVKALTRVLFLYIPLPMFWALLDQQGSRWTLQANKMNGDLGFFVLQPDQMQVLNPFLVLIFIPLFDLVIYRLISKCRINFSSLRKMAVGMILACLAFAVAALVETKINGMIHPQPASQEIFLQVLNLADGDVKVTVLGSRNNSLLVESVSSFQNTTHYSKLHLEAKSQDLHFHLKYNSLSVHNDHSVEEKNCYQLLIHQDGESISSMLVKDTGIKPANGMAAIRFINTLHKDLNISLDTDAPLSVGKDYGVSAYRTVLRGKYPAVHCETEDKVFSLDLGQLDFGTTYLFVITNITSQGLQAWKAEDIPVNKLSIAWQLPQYVLVTAAEVMFSVTGLEFSYSQAPSSMKSVLQAAWLLTVAVGNIIVLVVAQFSGLAQWAEFVLFSCLLLVVCLIFSVMAYYYVPLKSEDTREATDKQIPAVQGNMINLETKNTRL
B1 was tested, and the Km [6] was 35 µM.

Source: ChEMBL document CHEMBL2074191, “Electrophysiological characteristics of the proton-coupled peptide transporter PEPT2 cloned from rat brain” (Am J Physiol, 1998)
